Measurements as given in ChEMBL document CHEMBL4483862, “Open-source discovery of chemical leads for next-generation chemoprotective antimalarials” (2018).

System: Plasmodium berghei
Experiment: Luciferase/luciferin-expressing antifolate-resistant parasites were used to infect a culture of HepG2 cells that were pre-incubated with compounds. Infected hepatocytes emit light due to the luciferase reaction. Assay results are presented as the percent inhibition of light emission compared to control. […]
Type: functional
Conditions: sporozoite; for IC50: read-out: LUCIFERASE INFECTION ASSAY - IC50; for IC90: read-out: LUCIFERASE INFECTION ASSAY - IC90

| Compound | IC50 [µM] | IC90 [µM] |
| --- | --- | --- |
| FC(F)(F)c1cccc(NC(S)=Nc2ccc(Cl)c(Cl)c2)c1 | > 9.04 | > 9.04 |
| CN1C=C/C(=C/c2ccc3ccccc3[n+]2C)c2ccccc21 | 1.06 | 5.18 |
| O=C(CC1(O)C(=O)Nc2ccc(Br)cc21)c1ccc2c(c1)OCO2 (stereo not given) | > 8.46 | > 8.46 |
| CN(NS(=O)(=O)c1ccc(Cl)cc1)c1cnn(C)c(=O)c1Cl | > 9.09 | > 9.09 |
| COC(=O)c1cccc(NC(S)=Nc2ccc(Cl)c(Cl)c2)c1 | > 9.29 | > 9.29 |
| CN(C)C(=O)Oc1ccc(Br)cc1C(=O)Nc1ccc(F)c(Cl)c1 | > 7.94 | > 7.94 |
| Clc1ccc2c(c1)nnc1nnnn12 | 1.66 | 1.91 |
| CN1/C(=C/C=C/c2ccc3ccccc3[n+]2C)C=Cc2ccccc21 | 2.47 | 2.78 |
| N/C(CC(=O)Nc1ccc(F)cc1F)=N\O | > 14.4 | > 14.4 |
| COc1cc(NC(=O)c2ccc([N+](=O)[O-])o2)cc(C(F)(F)F)c1 | > 9.99 | > 9.99 |
| Oc1c(Cl)cc(Cl)cc1-c1ccn[nH]1 | > 14.4 | > 14.4 |
| Cc1nn(C(C)(C)C)c(C)c1/C=N/OC(=O)Nc1ccc(Cl)cc1 | 0.0825 | 0.27 |
| O=C(Nc1ccc(F)c(Cl)c1)c1ccccc1O | > 12.4 | > 12.4 |
| CN(C)c1cc(-c2cc(Cl)sc2Cl)oc(=O)c1Cl | > 10.2 | > 10.2 |
| Nc1nc(-c2ccc(OCc3ccc(F)cc3)cc2)cs1 | > 8.66 | > 8.66 |
| Cc1ccc(C(C=CC(C#N)C#N)=Nc2ccc(Cl)cc2)cc1 | > 10.3 | > 10.3 |
| O=[N+]([O-])c1cc(Cl)ccc1Oc1c(Cl)cccc1Cl | > 10.4 | > 10.4 |
| O=[N+]([O-])c1ccc(/C=[N+](\[O-])c2ccccc2)s1 | > 13.3 | > 13.3 |
| COc1ccccc1Oc1ccc(C(F)(F)F)cc1NC(=O)c1sc2ccccc2c1Cl | > 6.91 | > 6.91 |
| Brc1ccc(-c2cc(-c3ccccc3)cc(-c3ccccc3)n2)cc1 | > 8.54 | > 8.54 |
| COc1cccc(/C=N/NC(=S)NC2CC3CCC2C3)c1O (stereo not given) | > 10.3 | > 10.3 |
| COc1c(Cl)cc(Cl)c(OC)c1C(=O)NC(=O)Nc1cc(C(F)(F)F)cc(C(F)(F)F)c1 | 2.06 | 2.23 |

| Compound | IC50 [µM] | IC90 [µM] |
| --- | --- | --- |
| CCOC(=O)c1c[nH]c2cc(Cl)cc(Cl)c2c1=O | > 11.5 | > 11.5 |
| CCOC(=O)C1=C(C)N(S(=O)(=O)c2ccc(C)cc2)C(SC)=NC1c1ccccc1 (stereo not given) | > 7.42 | > 7.42 |
| O=C(NCc1cc(C(F)(F)F)cc(C(F)(F)F)c1)c1ccc(Cl)c(Cl)c1 | > 7.93 | > 7.93 |
| FC(F)(F)c1ccc2nc(SCc3nc(-c4ccc(Cl)cc4)no3)[nH]c2c1 | > 8.03 | > 8.03 |
| N=C(NS(=O)(=O)c1ccc(Cl)c(Cl)c1)c1ccc(Cl)cc1 | > 9.07 | > 9.07 |
| COc1cccc(CNC(=S)SCC(=O)C(C)(C)C)c1 | > 10.6 | > 10.6 |
| O=C(Cc1cccs1)Nc1ccc(Cl)c(C(F)(F)F)c1 | > 10 | > 10 |
| CCn1c2ccc(Cl)cc2c2cc(Cl)ccc21 | > 12.5 | > 12.5 |
| CC(C)(C)c1ccc(C(=O)ONC(=O)c2ccc(Cl)c(Cl)c2)cc1 | > 9.01 | > 9.01 |
| OC1(c2ccccc2)c2ccccc2-c2ccccc21 | 7.15 | > 12.8 |
| CN(C)c1ccc(C(=O)N/N=C/c2cc(Cl)cc(Cl)c2O)cc1 | > 9.37 | > 9.37 |
| OC(CN1CCCCC1)Cn1c2ccc(Br)cc2c2cc(Br)cc(Br)c21 (stereo not given) | > 6.05 | > 6.05 |
| O=c1c(NNc2cccc(C(F)(F)F)c2)c(CSc2ccc(Cl)cc2)[nH]n1-c1ccccc1 | > 6.72 | > 6.72 |
| FC(F)(F)c1ccc2nc(SCc3c(Cl)cccc3Cl)[nH]c2c1 | > 7.98 | > 7.98 |
| Cc1ccc(S(=O)(=O)c2ccc(-c3ccccc3)cc2)cc1 | > 10.7 | > 10.7 |
| Cc1onc(-c2c(Cl)cccc2Cl)c1C(=O)Nc1ccccc1C(=O)NCc1c(F)cccc1Cl | > 6.19 | > 6.19 |
| CCCCn1c(CSc2ccccn2)cn(-c2nnc(C(C)(C)C)s2)c1=O | > 8.18 | > 8.18 |
| O=S(=O)(NCc1cc(C(F)(F)F)cc(C(F)(F)F)c1)c1cc(C(F)(F)F)cc(C(F)(F)F)c1 | > 6.35 | > 6.35 |
| COc1ccc2c3c(cccc13)C(=O)N(c1nc3ccccc3n1C)C2=O | > 9.23 | > 9.23 |
| Cc1nc2c(C)cccn2c1C(=O)NN1C(=O)CSC1c1ccccc1 (stereo not given) | 7.23 | > 8 |
| O=c1cc(O)c2c(=O)n3c4c(cccc4c2o1)CCC3 | > 12.3 | > 12.3 |
| CS(=O)(=O)c1ccc(C(F)(F)F)cc1[N+](=O)[O-] | > 12.3 | > 12.3 |

| Compound | IC50 [µM] | IC90 [µM] |
| --- | --- | --- |
| O=C(NCc1cc(Cl)cc(Cl)c1)c1cc(C(F)(F)F)cc(C(F)(F)F)c1 | > 7.93 | > 7.93 |
| CCC(C)NC(=S)N/N=C/c1cc(Cl)cc(Cl)c1O (stereo not given) | > 10.3 | > 10.3 |
| COc1ccc2c(c1)nnc1nnc(SCC(=O)N3CCOCC3)n12 | > 9.16 | > 9.16 |
| O=C(CCCC(=O)Nc1cc(C(F)(F)F)cc(C(F)(F)F)c1)Nc1cc(C(F)(F)F)cc(C(F)(F)F)c1 | 1.07 | > 5.95 |
| CCCCCCCOc1ccc(C(=O)CCC(=O)O)cc1 | > 11.3 | > 11.3 |
| CCCCNC(=O)N1CCC(C(=O)c2c(C)c(C)c(C)c(C)c2C)CC1 | > 9.2 | > 9.2 |
| Fc1cccc(F)c1NC(=S)Nc1cc(C(F)(F)F)cc(C(F)(F)F)c1 | > 8.24 | > 8.24 |
| O=S(=O)(Oc1cccc2[nH]ccc12)c1ccc(Cl)cc1Cl | > 9.64 | > 9.64 |
| CN(/N=C/c1cc(Cl)cc(Cl)c1O)c1ccc(C(F)(F)F)cc1[N+](=O)[O-] | > 8.09 | > 8.09 |
| CCOC(=O)C(NC(=O)c1ccco1)(Nc1ccc(F)c(Cl)c1)C(F)(F)F (stereo not given) | > 8.07 | > 8.07 |
| Cc1[nH]c(=O)c(C#N)cc1C(=O)CSc1ccc(C(C)(C)C)cc1 | > 9.69 | > 9.69 |
| O=C(NCc1cc(C(F)(F)F)cc(C(F)(F)F)c1)c1cc(Cl)cc(Cl)c1 | > 7.93 | > 7.93 |
| O=C(On1c(-c2ccccc2)nc2ccccc2c1=O)c1ccc(F)cc1 | > 9.16 | > 9.16 |
| Cc1nn(C(=O)c2c(Cl)cccc2Cl)c(C)c1Cc1c(F)cccc1Cl | 7 | > 8.02 |
| O=[N+]([O-])c1ccc(OCc2ccccc2)c(Cl)c1 | > 12.5 | > 12.5 |
| CCOC(=O)c1cnc2cc(Cl)c(F)cc2c1N1CCOCC1 | > 9.74 | > 9.74 |
| Nn1cc(C(F)(F)F)cc(Cl)c1=[N+]1CCNCC1 | > 7.29 | > 7.29 |
| OC(Cc1ccccc1)(c1ccccc1)c1ccccc1/N=C/c1ccc(Cl)c(Cl)c1 (stereo not given) | > 7.39 | > 7.39 |
| O=C(Nc1cc(Cl)cc(Cl)c1)c1ccccc1O | 3.79 | 4.44 |
| NC(/C=C/c1cc(C(F)(F)F)cc(C(F)(F)F)c1)=N\O | > 11.1 | > 11.1 |
| CN1C/C(=C\c2ccc(Cl)cc2)C(=O)/C(=C/c2ccc(Cl)cc2)C1 | 7 | > 9.21 |
